PubChem BioAssay (NCI)
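All cell lines were grown in 96-well plates and treated with compound for 48 hours. The concentration for 50% growth inhibition is given as GI50. Definition used: TGI = concentration required for complete inhibition of growth.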

How the values were obtained:
Assay in all cases: growth of human tumour cells (NCI), 48 h
COLO 205 colon = tested on: COLO 205 colon
LOX IMVI melanoma = tested on: LOX IMVI melanoma
NCI-H226 lung = tested on: NCI-H226 lung
OVCAR-5 ovarian = tested on: OVCAR-5 ovarian
OVCAR-8 ovarian = tested on: OVCAR-8 ovarian
SK-MEL-2 melanoma = tested on: SK-MEL-2 melanoma
SN12C renal = tested on: SN12C renal
UACC-62 melanoma = tested on: UACC-62 melanoma
HCC-2998 colon = tested on: HCC-2998 colon
RXF 393 renal = tested on: RXF 393 renal

SMILES | TGI (COLO 205 colon) | TGI (LOX IMVI melanoma) | TGI (NCI-H226 lung) | TGI (OVCAR-5 ovarian) | TGI (OVCAR-8 ovarian) | TGI (SK-MEL-2 melanoma) | TGI (SN12C renal) | TGI (UACC-62 melanoma) | GI50 (COLO 205 colon) | GI50 (HCC-2998 colon) | TGI (HCC-2998 colon) | GI50 (LOX IMVI melanoma) | GI50 (NCI-H226 lung) | GI50 (OVCAR-5 ovarian) | GI50 (OVCAR-8 ovarian) | GI50 (RXF 393 renal) | TGI (RXF 393 renal) | GI50 (SN12C renal) | GI50 (UACC-62 melanoma) | GI50 (SK-MEL-2 melanoma)
Cc1[nH]c2ccccc2c1-c1cc(-c2cc(-c3c(C)[nH]c4ccccc34)nc(N)n2)nc(N)n1 | > 100 µM | > 100 µM | > 100 µM | > 100 µM | > 100 µM | > 100 µM | > 100 µM | > 100 µM |  |  |  |  |  |  |  |  |  |  |  | 
CC(=O)[O-].[Mn+3].[O-]c1ccccc1C=NCCN=Cc1ccccc1[O-] | > 100 µM | > 100 µM | > 100 µM | > 100 µM | > 100 µM |  | > 100 µM | > 100 µM | > 100 µM | > 100 µM | > 100 µM | > 100 µM | > 100 µM | 96.4 µM | > 100 µM | > 100 µM | > 100 µM | > 100 µM | > 100 µM | 
CC(=O)O[C@@H]1[C@@H](O)C2=C3[C@]4(C)[C@@H]1C(C)(C)C(=O)C[C@@H]4[C@]3(O)[C@H](OC(C)=O)[C@@]1(C[C@@H]1C)C2=O | 34.2 µM | 30.5 µM |  | 54.9 µM | 34.2 µM | 68.5 µM | 37.1 µM | 33.2 µM |  |  | 32.7 µM |  |  |  |  |  |  |  |  | 
CN(C)CCNC(=O)c1cccc2c(Nc3ccc(S(N)(=O)=O)cc3)c3ccccc3nc12 | 1.75 µM | 2.59 µM | 3.05 µM | 6.56 µM | 3.73 µM | 3.69 µM | 3.9 µM | 3.42 µM |  |  | 6.92 µM |  |  |  |  |  |  |  |  | 
COc1ccc(Cc2cc3c(cc2OCC(=O)O)OCO3)cc1 | > 100 µM | > 100 µM |  | > 100 µM | > 100 µM | > 100 µM | > 100 µM | > 100 µM |  |  | > 100 µM |  |  |  |  |  | > 100 µM |  |  | 
Cc1cc2cn3c4ccc(O)cc4[nH]c(=O)c3c2cc1C | 0.927 µM |  | 0.859 µM | 2.02 µM | 1.31 µM | 1.97 µM |  | 1.78 µM | 0.174 µM | 0.0679 µM | 1.3 µM |  | 0.0399 µM | 0.223 µM | 0.0359 µM | 0.0258 µM | 1.43 µM |  | 0.0411 µM | 0.0411 µM
Cc1nc(-c2ccccc2)cc2c1c(=O)oc1ccccc12 | > 100 µM |  | > 100 µM | > 100 µM | > 100 µM | > 100 µM | > 100 µM | > 100 µM |  |  | > 100 µM |  |  |  |  |  | > 100 µM |  |  | 
O=c1cc(-c2ccccc2)oc2cc(O)cc(O)c12 | 37.9 µM | 46.8 µM | 58.1 µM | 37.4 µM |  | 39.6 µM | 54.6 µM | 76.5 µM |  |  | 38.6 µM |  |  |  |  |  |  |  |  | 
O=C1c2ccccc2NC1(c1ccccc1)c1c(-c2ccccc2)[nH]c2ccccc12 (stereo not drawn) | 35.3 µM |  |  |  | > 100 µM | > 100 µM | > 100 µM | > 100 µM |  |  | > 100 µM |  |  |  |  |  | 64.1 µM |  |  | 
COc1cc2c3c(n(CCCNCCCNCCCNCCCN)c(=O)c2cc1OC)-c1cc2c(cc1C3=O)OCO2 | > 100 µM | 3.25 µM | 7.26 µM | 5.63 µM | 10.8 µM | 89 µM | 9.35 µM | 6.19 µM | 1.49 µM |  |  | 1.15 µM | 2.92 µM | 1.76 µM | 2.19 µM | 1.7 µM | 4.46 µM | 1.56 µM | 1.68 µM | 4.78 µM
CN1C(c2ccccc2)CS(=O)(=O)CS1(=O)=O (stereo not drawn) | > 100 µM | > 100 µM |  | > 100 µM | > 100 µM | > 100 µM | > 100 µM | > 100 µM |  |  | > 100 µM |  |  |  |  |  | > 100 µM |  |  | 
CCCCCCCCCCCCCCCC[N+](C)(CCO)Cc1cnc[nH]1 (stereo not drawn) |  |  | 7.72 µM |  |  |  | 6.31 µM |  |  | 1.14 µM | 2.73 µM |  | 1.51 µM |  |  |  |  | 1.45 µM |  | 
COC1=CC23CCCN2CCc2cc4c(cc2C3C1O)OCO4 (stereo not drawn) | 64.2 µM | > 100 µM | > 100 µM | > 100 µM | > 100 µM | > 100 µM | > 100 µM | > 100 µM |  |  | > 100 µM |  |  |  |  |  |  |  |  | 
CN(C)CCSc1cccc(-c2cc(-c3cccc(SCCN(C)C)c3)nc(SCCN(C)C)n2)c1 |  | 3.03 µM |  | 19.5 µM | 2.78 µM | 21.1 µM | 24.7 µM | 32 µM |  |  | 7.76 µM |  |  |  |  |  | 2.8 µM |  |  | 
S=C(Nc1ccc(Cl)cc1)Nc1ccc(-c2nc3ccccc3o2)cc1 | > 100 µM | 26.3 µM |  | 52.9 µM | 49.7 µM | 51.2 µM | 28.8 µM | 27.7 µM | 19.9 µM | 13.8 µM | 26.7 µM | 11.7 µM |  | 20.4 µM | 21 µM | 10.9 µM | 30.7 µM | 13.7 µM | 12.7 µM | 24.2 µM
O=c1c(O)cccc2cc(O)c(O)c(O)c12 | > 100 µM | > 100 µM | > 100 µM | > 100 µM | > 100 µM |  | > 100 µM | > 100 µM | > 100 µM | > 100 µM | > 100 µM | 13.2 µM | > 100 µM | 41.8 µM | 27.3 µM | 13.3 µM | > 100 µM | 57.4 µM | 6.4 µM | 
O=C(c1ccccc1)c1oc2ccc(Br)cc2c1-c1cnn(-c2ccccc2)c1 | > 100 µM | > 100 µM |  | > 100 µM |  | > 100 µM | > 100 µM | > 100 µM |  |  | > 100 µM |  |  |  |  |  | > 100 µM |  |  | 
CN(C)c1ncc(-c2ccc(C(F)(F)F)cc2)c(NC2CCCCCC2)n1 | 30.6 µM |  | 28.8 µM | 38.8 µM | > 100 µM |  | 62.2 µM | 35.7 µM | 14.4 µM | 13.8 µM | 28.8 µM |  | 12.6 µM | 18.2 µM | 25.8 µM | 10.8 µM | 27.2 µM | 17.3 µM | 14.7 µM | 
CC#C/C(=N\OC[C@H]1COCCN1)c1ccc2ncnc(Nc3ccc(OCc4cccc(F)c4)c(Cl)c3)c2c1 | 3.33 µM | 3.29 µM | 40.3 µM | 4.27 µM | 4.27 µM | 3.61 µM |  | 3.11 µM | 1.77 µM | 1.84 µM | 3.41 µM | 1.75 µM | 12 µM | 1.65 µM | 1.76 µM |  |  |  | 1.68 µM | 1.97 µM
CC(C)C1CC2C(=O)N(c3ccccc3)C(=O)C2c2[nH]c3ccccc3c21 (stereo not drawn) |  |  | 36.8 µM | > 100 µM | 40.1 µM | > 100 µM |  | > 100 µM |  |  | > 100 µM |  |  |  |  |  | 57.4 µM |  |  | 
Cc1ccccc1C(=O)Oc1ccc(O)cc1 | > 100 µM |  | > 100 µM | > 100 µM | > 100 µM | > 100 µM | > 100 µM | > 100 µM |  |  | > 100 µM |  |  |  |  |  | > 100 µM |  |  | 
O=C(/C=C/C=C/c1c(C2CC2)nc2ccccc2c1-c1ccc(F)cc1)c1cccs1 |  |  | 3.49 µM |  | > 100 µM | 6.14 µM | > 100 µM | 6.64 µM |  | 1.99 µM | 4.95 µM |  | 1.5 µM |  | 3.58 µM |  |  | 2.25 µM | 1.46 µM | 1.74 µM
O=C(O)/C(Cl)=C(\Cl)C(=O)NC1C2CC3CC(C2)CC1C3 (stereo not drawn) | > 100 µM | > 100 µM | > 100 µM | > 100 µM | > 100 µM |  | > 100 µM | > 100 µM |  |  | > 100 µM |  |  |  |  |  |  |  |  | 
COc1ccc(N/N=C(\CCN(C)C)c2ccccc2)cc1 | 7.84 µM | 7.74 µM |  | 91.7 µM | 27.2 µM | 18.9 µM | 17.2 µM | 6.23 µM |  |  |  |  |  |  |  |  | 29.7 µM |  |  | 
O=C(O)c1cc2ccccc2c(N=Nc2cc(C(F)(F)F)ccc2Cl)c1O | > 100 µM |  | > 100 µM | > 100 µM | > 100 µM | > 100 µM | > 100 µM |  |  |  | > 100 µM |  |  |  |  |  | > 100 µM |  |  | 
CC(=O)OC1CC2Oc3ccc(C)cc3C(C)(O2)C1=O (stereo not drawn) | > 100 µM | > 100 µM | > 100 µM |  | > 100 µM |  | > 100 µM | > 100 µM |  |  |  |  |  |  |  |  | > 100 µM |  |  | 
Clc1ccc(C2=Nn3c(nnc3-c3cc(Cl)cc(Cl)c3Cl)SC2)cc1 | > 100 µM | > 100 µM | > 100 µM | > 100 µM | > 100 µM | > 100 µM | > 100 µM | 70.9 µM | 52.8 µM |  |  | 27.1 µM | 51.9 µM | 36.7 µM | 38.3 µM |  |  | 75 µM | 21.6 µM | 41.7 µM
O=C(Nc1ccccc1O)c1ccc(CNc2ccnc(C(F)(F)F)c2)cc1 | 31.3 µM | 46 µM | 33.8 µM | > 100 µM | > 100 µM |  | > 100 µM | 17.6 µM | 14.7 µM | 10.2 µM | 26.5 µM | 2.8 µM | 6.56 µM | 16.5 µM | 5.15 µM | 17.3 µM | 43.3 µM | 4.61 µM | 1.3 µM | 
Cc1ccc(C2NC(=O)c3ccccc3N2)s1 (stereo not drawn) |  | > 100 µM |  | > 100 µM | 54.2 µM | 42 µM | 52.8 µM | > 100 µM |  |  | 39.7 µM |  |  |  |  |  | > 100 µM |  |  | 
O=C(/C=N/O)Nc1cc(Cl)c(Cl)cc1Cl | 87.4 µM | > 100 µM |  | > 100 µM | > 100 µM | 54.2 µM | 94.3 µM | 76.3 µM |  |  | > 100 µM |  |  |  |  |  | 95.3 µM |  |  | 
